Test results as given in patent US20250230193A1, “CYCLIC COMPOUND HAVING SELECTIVE KRAS INHIBITORY EFFECT ON HRAS AND NRAS” (CHUGAI SEIYAKU KABUSHIKI KAISHA, priority 2022, published 2025).
Where a SMILES comes first, the peptide text is derived from it. Bridges are numbered along the chain shown (N, C = ends). [ ]: non-standard residue; d: D form. The star is where a group is joined. hPhe(3-Cl-4-CF3) = N[C@@H](CCc1ccc(C(F)(F)F)c(Cl)c1)C(=O)O; NPrPhe(4-CF3) = CCCN[C@@H](Cc1ccc(C(F)(F)F)cc1)C(=O)O; NMeGly(cPent) = CN[C@H](C(=O)O)C1CCCC1; Pro(4,4-F2) = O=C(O)[C@@H]1CC(F)(F)CN1; Hyp = O=C(O)[C@@H]1C[C@@H](O)CN1; NMeL = CN[C@@H](CC(C)C)C(=O)O; Morpholide = C1CN(*)CCO1; Ac5c = NC1(C(=O)O)CCCC1; Ac4c = NC1(C(=O)O)CCC1; NEtG = CCNCC(=O)O; Sar = CNCC(=O)O

Tests used:
[1] = biological target: GDP-bound NRAS wild-type protein (Homo sapiens, UniProt P01111); assay: Binding to NRAS by surface plasmon resonance (SPR), Single Cycle Kinetics; details: KD ratio NRAS/KRAS, SPR
GDP-bound NRAS wild-type protein, sequence (P01111 whole entry): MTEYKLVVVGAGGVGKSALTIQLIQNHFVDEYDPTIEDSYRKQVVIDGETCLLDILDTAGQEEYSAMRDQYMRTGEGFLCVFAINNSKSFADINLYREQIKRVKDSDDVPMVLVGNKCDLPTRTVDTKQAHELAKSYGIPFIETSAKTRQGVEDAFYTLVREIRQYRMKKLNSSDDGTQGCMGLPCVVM

[2] = biological target: GDP-bound HRAS wild-type protein (Homo sapiens, UniProt P01112); assay: Binding to HRAS by surface plasmon resonance (SPR), Single Cycle Kinetics; details: KD ratio HRAS/KRAS, SPR
GDP-bound HRAS wild-type protein, sequence (P01112 whole entry): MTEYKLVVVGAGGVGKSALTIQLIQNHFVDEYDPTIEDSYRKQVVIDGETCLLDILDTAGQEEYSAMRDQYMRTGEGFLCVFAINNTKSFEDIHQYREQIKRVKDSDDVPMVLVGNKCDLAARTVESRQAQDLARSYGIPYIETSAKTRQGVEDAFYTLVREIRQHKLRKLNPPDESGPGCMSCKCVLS

SMILES	NRAS/KRAS (ratio of KD for GDP-bound NRAS wild-type to KD for KRAS) [1]	HRAS/KRAS (ratio of KD for GDP-bound HRAS wild-type to KD for KRAS) [2]
CCCN1C(=O)CN(C)C(=O)CN(C)C(=O)[C@H]([C@@H](C)CC)NC(=O)[C@H](CC(C)C)N(C)C(=O)C[C@@H](C(=O)N2CCOCC2)NC(=O)[C@H](C2CCCC2)N(C)C(=O)C2(CCC2)NC(=O)[C@@H]2CCCN2C(=O)[C@H](CCc2ccc(C(F)(F)F)c(Cl)c2)NC(=O)CN(C)C(=O)[C@@H]1Cc1ccc(C(F)(F)F)cc1 [PP0320] ([NMeL]I[Sar][Sar][NPrPhe(4-CF3)][Sar][hPhe(3-Cl-4-CF3)]P[Ac4c][NMeGly(cPent)]D-Morpholide; lactam N-11)	B (a compound having 3 or more and less than 10 is denoted as B)	B (a compound having 3 or more and less than 10 is denoted as B)
CCCN1C(=O)CN(C)C(=O)CN(C)C(=O)[C@H]([C@@H](C)CC)NC(=O)[C@H](CC(C)C)N(C)C(=O)C[C@@H](C(=O)N2CCOCC2)NC(=O)[C@H](C2CCCC2)N(C)C(=O)C2(CCCC2)NC(=O)[C@@H]2CC(F)(F)CN2C(=O)[C@H](CCc2ccc(C(F)(F)F)c(Cl)c2)NC(=O)CN(C)C(=O)[C@@H]1Cc1ccc(C(F)(F)F)cc1 [PP0321] ([NMeL]I[Sar][Sar][NPrPhe(4-CF3)][Sar][hPhe(3-Cl-4-CF3)][Pro(4,4-F2)][Ac5c][NMeGly(cPent)]D-Morpholide; lactam N-11)	B (a compound having 3 or more and less than 10 is denoted as B)	B (a compound having 3 or more and less than 10 is denoted as B)
CCCN1C(=O)CN(C)C(=O)CN(C)C(=O)[C@H]([C@@H](C)CC)NC(=O)[C@H](CC(C)C)N(C)C(=O)C[C@@H](C(=O)N2CCOCC2)NC(=O)[C@H](C2CCCC2)N(C)C(=O)C2(CCC2)NC(=O)[C@@H]2CC(F)(F)CN2C(=O)[C@H](CCc2ccc(C(F)(F)F)c(Cl)c2)NC(=O)CN(C)C(=O)[C@@H]1Cc1ccc(C(F)(F)F)cc1 [PP0322] ([NMeL]I[Sar][Sar][NPrPhe(4-CF3)][Sar][hPhe(3-Cl-4-CF3)][Pro(4,4-F2)][Ac4c][NMeGly(cPent)]D-Morpholide; lactam N-11)	B (a compound having 3 or more and less than 10 is denoted as B)	C (A compound having a KD ratio of 0.1 or more and less than 3 is denoted as C)
CCCN1C(=O)CN(C)C(=O)CN(C)C(=O)[C@H]([C@@H](C)CC)NC(=O)[C@H](CC(C)C)N(C)C(=O)C[C@@H](C(=O)N2CCOCC2)NC(=O)[C@H](C2CCCC2)N(C)C(=O)C2(CCCC2)NC(=O)[C@@H]2C[C@@H](OCC)CN2C(=O)[C@H](CCc2ccc(C(F)(F)F)c(Cl)c2)NC(=O)CN(C)C(=O)[C@@H]1Cc1ccc(C(F)(F)F)cc1 [PP0323] ([NMeL]I[Sar][Sar][NPrPhe(4-CF3)][Sar][hPhe(3-Cl-4-CF3)][Hyp](Et)[Ac5c][NMeGly(cPent)]D-Morpholide; lactam N-11)	B (a compound having 3 or more and less than 10 is denoted as B)	B (a compound having 3 or more and less than 10 is denoted as B)
CCCN1C(=O)CN(C)C(=O)CN(C)C(=O)[C@H]([C@@H](C)CC)NC(=O)[C@H](CC(C)C)N(C)C(=O)C[C@@H](C(=O)N2CCOCC2)NC(=O)[C@H](C2CCCC2)N(C)C(=O)C2(CCC2)NC(=O)[C@@H]2C[C@@H](OCC)CN2C(=O)[C@H](CCc2ccc(C(F)(F)F)c(Cl)c2)NC(=O)CN(C)C(=O)[C@@H]1Cc1ccc(C(F)(F)F)cc1 [PP0324] ([NMeL]I[Sar][Sar][NPrPhe(4-CF3)][Sar][hPhe(3-Cl-4-CF3)][Hyp](Et)[Ac4c][NMeGly(cPent)]D-Morpholide; lactam N-11)	B (a compound having 3 or more and less than 10 is denoted as B)	B (a compound having 3 or more and less than 10 is denoted as B)
CCCN1C(=O)CN(C)C(=O)CNC(=O)[C@H]([C@@H](C)CC)NC(=O)[C@H](CC(C)C)N(C)C(=O)C[C@@H](C(=O)N2CCOCC2)NC(=O)[C@H](C2CCCC2)N(C)C(=O)C2(CCCC2)NC(=O)[C@@H]2CCCN2C(=O)[C@H](CCc2ccc(C(F)(F)F)c(Cl)c2)NC(=O)CN(C)C(=O)[C@@H]1Cc1ccc(C(F)(F)F)cc1 [PP0325] ([NMeL]IG[Sar][NPrPhe(4-CF3)][Sar][hPhe(3-Cl-4-CF3)]P[Ac5c][NMeGly(cPent)]D-Morpholide; lactam N-11)	B (a compound having 3 or more and less than 10 is denoted as B)	B (a compound having 3 or more and less than 10 is denoted as B)
CCCN1C(=O)CN(C)C(=O)CNC(=O)[C@H]([C@@H](C)CC)NC(=O)[C@H](CC(C)C)N(C)C(=O)C[C@@H](C(=O)N2CCOCC2)NC(=O)[C@H](C2CCCC2)N(C)C(=O)C2(CCC2)NC(=O)[C@@H]2CCCN2C(=O)[C@H](CCc2ccc(C(F)(F)F)c(Cl)c2)NC(=O)CN(C)C(=O)[C@@H]1Cc1ccc(C(F)(F)F)cc1 [PP0326] ([NMeL]IG[Sar][NPrPhe(4-CF3)][Sar][hPhe(3-Cl-4-CF3)]P[Ac4c][NMeGly(cPent)]D-Morpholide; lactam N-11)	B (a compound having 3 or more and less than 10 is denoted as B)	B (a compound having 3 or more and less than 10 is denoted as B)
CCCN1C(=O)CN(C)C(=O)CNC(=O)[C@H]([C@@H](C)CC)NC(=O)[C@H](CC(C)C)N(C)C(=O)C[C@@H](C(=O)N2CCOCC2)NC(=O)[C@H](C2CCCC2)N(C)C(=O)C2(CCCC2)NC(=O)[C@@H]2CC(F)(F)CN2C(=O)[C@H](CCc2ccc(C(F)(F)F)c(Cl)c2)NC(=O)CN(C)C(=O)[C@@H]1Cc1ccc(C(F)(F)F)cc1 [PP0327] ([NMeL]IG[Sar][NPrPhe(4-CF3)][Sar][hPhe(3-Cl-4-CF3)][Pro(4,4-F2)][Ac5c][NMeGly(cPent)]D-Morpholide; lactam N-11)	B (a compound having 3 or more and less than 10 is denoted as B)	B (a compound having 3 or more and less than 10 is denoted as B)
CCCN1C(=O)CN(C)C(=O)CNC(=O)[C@H]([C@@H](C)CC)NC(=O)[C@H](CC(C)C)N(C)C(=O)C[C@@H](C(=O)N2CCOCC2)NC(=O)[C@H](C2CCCC2)N(C)C(=O)C2(CCC2)NC(=O)[C@@H]2CC(F)(F)CN2C(=O)[C@H](CCc2ccc(C(F)(F)F)c(Cl)c2)NC(=O)CN(C)C(=O)[C@@H]1Cc1ccc(C(F)(F)F)cc1 [PP0328] ([NMeL]IG[Sar][NPrPhe(4-CF3)][Sar][hPhe(3-Cl-4-CF3)][Pro(4,4-F2)][Ac4c][NMeGly(cPent)]D-Morpholide; lactam N-11)	B (a compound having 3 or more and less than 10 is denoted as B)	B (a compound having 3 or more and less than 10 is denoted as B)
CCCN1C(=O)CN(C)C(=O)CNC(=O)[C@H]([C@@H](C)CC)NC(=O)[C@H](CC(C)C)N(C)C(=O)C[C@@H](C(=O)N2CCOCC2)NC(=O)[C@H](C2CCCC2)N(C)C(=O)C2(CCCC2)NC(=O)[C@@H]2C[C@@H](OCC)CN2C(=O)[C@H](CCc2ccc(C(F)(F)F)c(Cl)c2)NC(=O)CN(C)C(=O)[C@@H]1Cc1ccc(C(F)(F)F)cc1 [PP0329] ([NMeL]IG[Sar][NPrPhe(4-CF3)][Sar][hPhe(3-Cl-4-CF3)][Hyp](Et)[Ac5c][NMeGly(cPent)]D-Morpholide; lactam N-11)	B (a compound having 3 or more and less than 10 is denoted as B)	C (A compound having a KD ratio of 0.1 or more and less than 3 is denoted as C)
CCCN1C(=O)CN(C)C(=O)CNC(=O)[C@H]([C@@H](C)CC)NC(=O)[C@H](CC(C)C)N(C)C(=O)C[C@@H](C(=O)N2CCOCC2)NC(=O)[C@H](C2CCCC2)N(C)C(=O)C2(CCC2)NC(=O)[C@@H]2C[C@@H](OCC)CN2C(=O)[C@H](CCc2ccc(C(F)(F)F)c(Cl)c2)NC(=O)CN(C)C(=O)[C@@H]1Cc1ccc(C(F)(F)F)cc1 [PP0330] ([NMeL]IG[Sar][NPrPhe(4-CF3)][Sar][hPhe(3-Cl-4-CF3)][Hyp](Et)[Ac4c][NMeGly(cPent)]D-Morpholide; lactam N-11)	B (a compound having 3 or more and less than 10 is denoted as B)	C (A compound having a KD ratio of 0.1 or more and less than 3 is denoted as C)
CCCN1C(=O)CN(C)C(=O)CN(CC)C(=O)[C@H]([C@@H](C)CC)NC(=O)[C@H](CC(C)C)N(C)C(=O)C[C@@H](C(=O)N2CCOCC2)NC(=O)[C@H](C2CCCC2)N(C)C(=O)C2(CCCC2)NC(=O)[C@@H]2CCCN2C(=O)[C@H](CCc2ccc(C(F)(F)F)c(Cl)c2)NC(=O)CN(C)C(=O)[C@@H]1Cc1ccc(C(F)(F)F)cc1 [PP0331] ([NMeL]I[NEtG][Sar][NPrPhe(4-CF3)][Sar][hPhe(3-Cl-4-CF3)]P[Ac5c][NMeGly(cPent)]D-Morpholide; lactam N-11)	B (a compound having 3 or more and less than 10 is denoted as B)	B (a compound having 3 or more and less than 10 is denoted as B)
CCCN1C(=O)CN(C)C(=O)CN(CC)C(=O)[C@H]([C@@H](C)CC)NC(=O)[C@H](CC(C)C)N(C)C(=O)C[C@@H](C(=O)N2CCOCC2)NC(=O)[C@H](C2CCCC2)N(C)C(=O)C2(CCC2)NC(=O)[C@@H]2CCCN2C(=O)[C@H](CCc2ccc(C(F)(F)F)c(Cl)c2)NC(=O)CN(C)C(=O)[C@@H]1Cc1ccc(C(F)(F)F)cc1 [PP0332] ([NMeL]I[NEtG][Sar][NPrPhe(4-CF3)][Sar][hPhe(3-Cl-4-CF3)]P[Ac4c][NMeGly(cPent)]D-Morpholide; lactam N-11)	B (a compound having 3 or more and less than 10 is denoted as B)	B (a compound having 3 or more and less than 10 is denoted as B)
